Where a name gives a salt, the structure may show the parent alone.
Biological target: T1, α7 nAChR (Rattus norvegicus, UniProt Q05941)
T1 construct: brains (whole brain minus cerebellum) are dissected quickly, weighed and homogenized; from tissue; host or cells: rat brain (whole brain minus cerebellum) membrane homogenate
Assay: [3H]-MLA competition binding assay in rat brain membranes
Conditions: not given
Description: Materials and Methods for Identifying Binding Constants:
Membrane Preparation. Male Sprague-Dawley rats (300–350 g) are sacrificed by decapitation and the brains (whole brain minus cerebellum) are dissected quickly, weighed and homogenized in 9 volumes/g wet weight of ice-cold 0.32M sucrose using a rotating pestle on setting 50 (10 up and down strokes). The homogenate is centrifuged at 1,000×g for 10 minutes at 4° C. The supernatant is collected and centrifuged at 20,000×g for 20 minutes at 4° C. The resulting pellet is resuspended to a protein concentration of 1–8 mg/mL. Aliquots of 5 mL homogenate are frozen at −80° C. until needed for the assay. On the day of the assay, aliquots are thawed at room temperature and diluted with Kreb's—20 mM Hepes buffer pH 7.0 (at room temperature) containing 4.16 mM NaHCO3, 0.44 mM KH2PO4, 127 mM NaCl, 5.36 mM KCl, 1.26 mM CaCl2, and 0.98 mM MgCl2, so that 25–150 μg protein are added per test tube. Proteins are determined by the Bradford method (Bradford, M. M., Anal. Biochem., 72, 248–254, 1976) using bovine serum albumin as the standard.
Binding Assay. For saturation studies, 0.4 mL homogenate are added to test tubes containing buffer and various concentrations of radioligand, and are incubated in a final volume of 0.5 mL for 1 hour at 25° C. Nonspecific binding was determined in tissues incubated in parallel in the presence of 1 μM MLA, added before the radioligand. In competition studies, drugs are added in increasing concentrations to the test tubes before addition of approximately 3.0 to 4.0 nM [^3H]-MLA. The incubations are terminated by rapid vacuum filtration through Whatman GF/B glass filter paper mounted on a 48 well Brandel cell harvester. Filters are pre-soaked in 50 mM Tris HCl pH 7.0–0.05% polyethylenimine. The filters are rapidly washed two times with 5 mL aliquots of cold 0.9% saline and then counted for radioactivity by liquid scintillation spectrometry.
Data Analysis. In competition binding studies, the inhibition constant (Ki) was calculated from the concentration dependent inhibition of [^3H]-MLA binding obtained from non-linear regression fitting program according to the Cheng-Prusoff equation (Cheng, Y. C. and Prussoff, W. H., Biochem. Pharmacol., 22, p. 3099–3108, 1973). Hill coefficients were obtained using non-linear regression (GraphPad Prism sigmoidal dose-response with variable slope).

T1 sequence (Q05941 23-502): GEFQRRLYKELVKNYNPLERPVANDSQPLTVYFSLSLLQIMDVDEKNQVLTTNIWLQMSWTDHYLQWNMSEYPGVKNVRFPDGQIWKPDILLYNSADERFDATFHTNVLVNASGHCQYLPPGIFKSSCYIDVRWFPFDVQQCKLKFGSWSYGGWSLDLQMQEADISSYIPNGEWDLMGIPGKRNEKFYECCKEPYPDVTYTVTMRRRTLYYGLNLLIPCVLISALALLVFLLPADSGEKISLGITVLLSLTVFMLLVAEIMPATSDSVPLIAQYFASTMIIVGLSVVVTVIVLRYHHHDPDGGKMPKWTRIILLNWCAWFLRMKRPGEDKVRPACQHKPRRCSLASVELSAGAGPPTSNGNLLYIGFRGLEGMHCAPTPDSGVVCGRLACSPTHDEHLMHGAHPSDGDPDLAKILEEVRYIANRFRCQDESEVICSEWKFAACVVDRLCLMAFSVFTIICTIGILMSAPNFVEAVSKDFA

First: O=C(N[C@H]1CN2CCC1CC2)c1cc2c(cn1)OCC2 [Example 1, N-[(3R)-1-azabicyclo[2.2.2]oct-3-yl]-2,3-dihydrofuro[2,3-c]pyridine-5-carboxamide dihydrochloride]
Second: O=C(N[C@H]1CN2CCC1CC2)c1cc2ccsc2cn1 [Example 22, N-[(3R)-1-azabicyclo[2.2.2]oct-3-yl]thieno[2,3-c]pyridine-5-carboxamide dihydrochloride]
The Ki of the first is higher: 50 to 60 nM for the first, 5 nM for the second.

Compared with Cc1cc2cc(C(=O)N[C@H]3CN4CCC3CC4)ncc2o1 [Example 6, N-[(3R)-1-azabicyclo[2.2.2]oct-3-yl]-2-methylfuro[2,3-c]pyridine-5-carboxamide dihydrochloride], Cc1coc2cnc(C(=O)N[C@H]3CN4CCC3CC4)cc12 [Example 9, N-[(3R)-1-azabicyclo[2.2.2]oct-3-yl]-3-methylfuro[2,3-c]pyridine-5-carboxamide] is lower in Ki: 119 nM for the first, 1 to 6 nM for the second.

First: O=C(N[C@H]1CN2CCC1CC2)c1cc2cccnc2s1 [Example 13, N-((3R)-1-azabicyclo[2.2.2]oct-3-yl)thieno[2,3-b]pyridine-2-carboxamide dihydrochloride]
Second: O=C(N[C@H]1CN2CCC1CC2)c1cc2ccncc2s1 [Example 17, N-[(3R)-1-azabicyclo[2.2.2]oct-3-yl]thieno[2,3-c]pyridine-2-carboxamide dihydrochloride]
The Ki of the first is 1.7-fold higher: 108 nM for the first, 65 nM for the second.

Going from O=C(N[C@H]1CN2CCC1CC2)c1ccc2sccc2n1 [Example 19, N-[(3R)-1-azabicyclo[2.2.2]oct-3-yl]thieno[3,2-b]pyridine-5-carboxamide dihydrochloride] to O=C(N[C@H]1CN2CCC1CC2)c1cnc2ccsc2c1 [Example 20, N-[(3R)-1-azabicyclo[2.2.2]oct-3-yl]thieno[3,2-b]pyridine-6-carboxamide dihydrochloride], the Ki rises from 274 nM to 952 nM (3.5-fold).

O=C(N[C@H]1CN2CCC1CC2)c1cc2c(Cl)coc2cn1 [Example 28, N-[(3R)-1-Azabicyclo[2.2.2]oct-3-yl]-3-chlorofuro[2,3-c]pyridine-5-carboxamide dihydrochloride] and O=C(N[C@H]1CN2CCC1CC2)c1cc2c(Br)coc2cn1 [Example 29, N-[(3R)-1-Azabicyclo[2.2.2]oct-3-yl]-3-bromofuro[2,3-c]pyridine-5-carboxamide] are within 1.5-fold of each other in Ki: 3 nM for the first, 4 nM for the second.

Compared with O=C(N[C@H]1CN2CCC1CC2)c1cc2occc2cn1 [Example 30, N-[(3R)-1-Azabicyclo[2.2.2]oct-3-yl]furo[3,2-c]pyridine-6-carboxamide dihydrochloride], O=C(N[C@H]1CN2CCC1CC2)c1cc2cscc2cn1 [Example 40, N-[(3R)-1-azabicyclo[2.2.2]oct-3-yl]thieno[3,4-c]pyridine-6-carboxamide methanesulfonate] is 1.8-fold lower in Ki: 45 nM for the first, 25 nM for the second.

Compared with O=C(N[C@H]1CN2CCC1CC2)c1cc2c(Br)csc2cn1 [Example 31, N-[(3R)-1-azabicyclo[2.2.2]oct-3-yl]-3-bromothieno[2,3-c]pyridine-5-carboxamide], C[C@H]1[C@H](NC(=O)c2cc3ccsc3cn2)C2CCN1CC2 [Example 35, N-[(2S,3R)-2-methyl-1-azabicyclo[2.2.2]oct-3-yl]thieno[2,3-c]pyridine-5-carboxamide dihydrochloride] is 2-fold higher in Ki: 9 nM for the first, 18 nM for the second.

C[C@H]1[C@H](NC(=O)c2cc3ccoc3cn2)C2CCN1CC2 [Example 33, N-[(2S,3R)-2-methyl-1-azabicyclo[2.2.2]oct-3-yl]furo[2,3-c]pyridine-5-carboxamide dihydrochloride] and Cc1coc2cnc(C(=O)N[C@@H]3C4CCN(CC4)[C@H]3C)cc12 [Example 34, 3-methyl-N-[(2S,3R)-2-methyl-1-azabicyclo[2.2.2]oct-3-yl]furo[2,3-c]pyridine-5-carboxamide dihydrochloride] are the same in Ki: 15 nM for the first, 15 nM for the second.

With C[C@H]1[C@H](NC(=O)c2cc3sccc3cn2)C2CCN1CC2 [Example 36, N-[(2S,3R)-2-methyl-1-azabicyclo[2.2.2]oct-3-yl]thieno[3,2-c]pyridine-6-carboxamide dihydrochloride] the Ki was 12 nM.

Same assay, conditions: competition with approximately 3.0 to 4.0 nM [3H]-MLA, rat brain (whole brain minus cerebellum) homogenate, 1 hour at 25° C, Cheng-Prusoff; read-out: Ki Value

Compared with O=C(N[C@H]1CN2CCC1CC2)c1cc2cnccc2o1 [Example 2, N-[(3R)-1-azabicyclo[2.2.2]oct-3-yl]furo[3,2-c]pyridine-2-carboxamide], O=C(N[C@H]1CN2CCC1CC2)c1cc2cnccc2s1 [Example 21, N-[(3R)-1-azabicyclo[2.2.2]oct-3-yl]thieno[3,2-c]pyridine-2-carboxamide dihydrochloride] is 4.8-fold lower in Ki: 1300 nM for the first, 269 nM for the second.

First: O=C(N[C@H]1CN2CCC1CC2)c1cc2ccoc2c(Cl)n1 [Example 3, N-[(3R)-1-azabicyclo[2.2.2]oct-3-yl]-7-chlorofuro[2,3-c]pyridine-5-carboxamide hydrochloride]
Second: O=C(N[C@H]1CN2CCC1CC2)c1cc2ccoc2cn1 [Example 4, N-[(3R)-1-azabicyclo[2.2.2]oct-3-yl]furo[2,3-c]pyridine-5-carboxamide dihydrochloride]
The Ki of the first is higher: 2250 nM for the first, 9 to 10 nM for the second.

For O=C(N[C@H]1CN2CCC1CC2)c1cc2sccc2cn1 [Example 23, N-[(3R)-1-azabicyclo[2.2.2]oct-3-yl]thieno[3,2-c]pyridine-6-carboxamide dihydrochloride], the Ki was 5 nM.

— patent US7067515B2, “Quinuclidines-substituted-multi-cyclic-heteroaryls for the treatment of disease” (Pfizer Inc., priority 2001, dated 2006)
